In the assay the test system is BDF1 mice, B16 melanoma ip, median survival T/C. As to the kind of experiment: NCI In Vivo Anticancer Drug Screen. Data for tumor model B16 Melanoma (intraperitoneal) in B6D2F1 (BDF1) mice. As to conditions: endpoint: median survival time, higher = longer survival. An outline of the steps: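 Values are ratios of treated (T) to vehicle-control (C) measurements of survival or tumor size in tumor-bearing mice.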

Where [1] appears, read: dose: 25.0 mg/kg/injection, schedule: Q01DX009 (ip), vehicle: Klucel (hydroxypropylcellulose) (HPC).
[2] abbreviates: dose: 50.0 mg/kg/injection, schedule: Q01DX009 (ip), vehicle: Klucel (hydroxypropylcellulose) (HPC).
Setting [3] is: dose: 100.0 mg/kg/injection, schedule: Q01DX009 (ip), vehicle: Klucel (hydroxypropylcellulose) (HPC).
The mark [4] stands for this setting: dose: 100.0 mg/kg/injection, schedule: Q01DX009 (ip), vehicle: saline with Tween-80.
[5] abbreviates: dose: 200.0 mg/kg/injection, schedule: Q01DX009 (ip), vehicle: saline with Tween-80.
The mark [6] stands for this setting: dose: 25.0 mg/kg/injection, schedule: Q01DX009 (ip), vehicle: saline with Tween-80.
Where [7] appears, read: dose: 50.0 mg/kg/injection, schedule: Q01DX009 (ip), vehicle: saline with Tween-80.
The mark [8] stands for this setting: dose: 1.56 mg/kg/injection, schedule: Q01DX009 (ip), vehicle: Klucel (hydroxypropylcellulose) (HPC).
Setting [9] is: dose: 6.25 mg/kg/injection, schedule: Q01DX009 (ip), vehicle: Klucel (hydroxypropylcellulose) (HPC).
Setting [10] is: dose: 12.5 mg/kg/injection, schedule: Q01DX009 (ip), vehicle: Klucel (hydroxypropylcellulose) (HPC).
Where [11] appears, read: dose: 3.12 mg/kg/injection, schedule: Q01DX009 (ip), vehicle: Klucel (hydroxypropylcellulose) (HPC).
[12] abbreviates: dose: 1.56 mg/kg/injection, schedule: Q01DX009 (ip), vehicle: saline with Tween-80.
Setting [13] is: dose: 6.25 mg/kg/injection, schedule: Q01DX009 (ip), vehicle: saline with Tween-80.
Where [14] appears, read: dose: 25.0 mg/kg/injection, schedule: Q01DX009 (ip), vehicle: saline.
[15] abbreviates: dose: 50.0 mg/kg/injection, schedule: Q01DX009 (ip), vehicle: saline.

Values joined by “and” are separate entries in the source; they are usually repeats but may differ in a detail not shown here. Identical values can stand only once. Inconclusive results and toxic doses are left out.

Our source for the T/C values is PubChem BioAssay AID192 (DTP/NCI, 2004).

In the case of `CCC1OC2(C)C(O)C(/C=C/C=C/C=C/c3oc(=O)cc(OC)c3C)OC1(C)C2OC(C)=O` (configuration not stated), the T/C (dose: 0.5 mg/kg/injection, schedule: Q01DX009 (ip), vehicle: Klucel (hydroxypropylcellulose) (HPC)) was 94 % of control; the T/C (dose: 1.0 mg/kg/injection, schedule: Q01DX009 (ip), vehicle: Klucel (hydroxypropylcellulose) (HPC)) is 93 % of control; the T/C (dose: 2.0 mg/kg/injection, schedule: Q01DX009 (ip), vehicle: Klucel (hydroxypropylcellulose) (HPC)) was 94 % of control.

As to `O=C(O)/C(Br)=C/c1ccccc1`, the T/C (dose: 50.0 mg/kg/injection, schedule: Q04DX003 (ip), vehicle: saline with Tween-80) was 107 % of control; the T/C (dose: 100.0 mg/kg/injection, schedule: Q04DX003 (ip), vehicle: saline with Tween-80) was 112 % of control; the T/C (dose: 200.0 mg/kg/injection, schedule: Q04DX003 (ip), vehicle: saline with Tween-80) is 102 % of control.

Turning to `CNC(=O)Nc1ccccc1C(=O)NN`, the T/C is 106 % of control under setting [1]; 100 % of control under setting [2]; 100 % of control under setting [3]; 97 % of control (dose: 200.0 mg/kg/injection, schedule: Q01DX009 (ip), vehicle: Klucel (hydroxypropylcellulose) (HPC)).

With `CC(CP(=O)(c1ccccc1)c1ccccc1)C(=O)O` (configuration not stated), the T/C reads like this: under setting [4], 95 % of control; under setting [5], 97 % of control; (dose: 400.0 mg/kg/injection, schedule: Q01DX009 (ip), vehicle: saline with Tween-80) 90 % of control.

For `COc1ccc2nonc2c1`, the T/C under setting [6] is 107 % of control, the T/C under setting [7] is 95 % of control, the T/C under setting [4] was 91 % of control and the T/C under setting [5] was 101 % of control.

As to `O=C(CCl)NC(Cc1ccc(O)cc1)C(=O)O` (configuration not stated), the T/C was 105 % of control under setting [6], 101 % of control under setting [7] and 95 % of control under setting [4].

As for `CCCCCCCCCCCCCCCCCC(=O)OCC(=O)OCC(=O)[C@]1(O)Cc2c(O)c3c(c(O)c2[C@@H](OC2CC(N)C(O)C(C)O2)C1)C(=O)c1c(OC)cccc1C3=O` (some centres not stated), the T/C reads like this: (dose: 3.75 mg/kg/injection, schedule: Q01DX001 (ip), vehicle: water) 236 % of control; (dose: 7.5 mg/kg/injection, schedule: Q01DX001 (ip), vehicle: water) 287 % of control and 289 % of control; (dose: 15.0 mg/kg/injection, schedule: Q01DX001 (ip), vehicle: water) 289 % of control; (dose: 30.0 mg/kg/injection, schedule: Q01DX001 (ip), vehicle: water) 154 % of control and 289 % of control (2×).

Turning to `Clc1c(Cl)c(CBr)c(Cl)c(CBr)c1Cl`, the T/C is 100 % of control under setting [8]; 105 % of control under setting [9]; 102 % of control under setting [10]; 86 % of control (dose: 12.5 mg/kg/injection, schedule: Q04DX003 (ip), vehicle: saline with Tween-80); 95 % of control under setting [6]; 92 % of control (dose: 25.0 mg/kg/injection, schedule: Q04DX003 (ip), vehicle: saline with Tween-80). Further, the T/C is 97 % of control under setting [7] and 95 % of control under setting [4].

On to `S=c1[nH]c2ccccc2[nH]1`, for which the T/C is 91 % of control under setting [8]; 90 % of control under setting [11]; 95 % of control under setting [9]; 86 % of control under setting [10]; 100 % of control under setting [1].

In the case of `Cc1ccc(NC(=O)COc2ccc(Cl)cc2Cl)c([N+](=O)[O-])c1`, the T/C (dose: 25.0 mg/kg/injection, schedule: Q01DX009 (ip), vehicle: carboxymethylcellulose (CMC)) was 100 % of control; the T/C (dose: 50.0 mg/kg/injection, schedule: Q01DX009 (ip), vehicle: carboxymethylcellulose (CMC)) is 100 % of control; the T/C under setting [3] was 88 % of control; the T/C (dose: 100.0 mg/kg/injection, schedule: Q01DX009 (ip), vehicle: carboxymethylcellulose (CMC)) was 100 % of control.

Regarding `NC(=O)/C=C/C(=O)c1c(Cl)cccc1Cl`, the T/C (dose: 0.78 mg/kg/injection, schedule: Q01DX009 (ip), vehicle: saline with Tween-80) was 103 % of control; the T/C under setting [12] was 106 % of control; the T/C (dose: 3.12 mg/kg/injection, schedule: Q01DX009 (ip), vehicle: saline with Tween-80) is 112 % of control.

For `C[C@@H]1CC2=CC(=O)CC[C@@H]2[C@H]2CC[C@@]3(C)[C@@H](CC[C@]3(C)O)[C@@H]21`, the T/C runs as follows: under setting [6], 102 % of control; under setting [7], 92 % of control and 113 % of control; under setting [4], 97 % of control and 108 % of control.

With `O=NN(CCBr)C(=O)NCCBr`, the T/C is, setting by setting: (dose: 50.0 mg/kg/injection, schedule: Q01DX009 (ip), vehicle: gum acacia) 107 % of control; (dose: 66.0 mg/kg/injection, schedule: Q01DX009 (ip), vehicle: gum acacia) 109 % of control; (dose: 100.0 mg/kg/injection, schedule: Q01DX009 (ip), vehicle: gum acacia) 116 % of control.

For `Nc1nccc2c1ncn2C1OC(CO)C(O)C1O` (configuration not stated), the T/C by setting is: (dose: 4.6 mg/kg/injection, schedule: Q03HX024 (ip), vehicle: saline with Tween-80) 90 % of control and 109 % of control; (dose: 9.3 mg/kg/injection, schedule: Q03HX024 (ip), vehicle: saline with Tween-80) 94 % of control and 117 % of control; (dose: 18.7 mg/kg/injection, schedule: Q03HX024 (ip), vehicle: saline with Tween-80) 98 % of control; (dose: 37.5 mg/kg/injection, schedule: Q03HX024 (ip), vehicle: saline with Tween-80) 94 % of control.

As for `Cc1nc2c(O)ccc(O)c2nc1C`, the T/C reads like this: under setting [12], 106 % of control; (dose: 3.13 mg/kg/injection, schedule: Q01DX009 (ip), vehicle: saline with Tween-80) 102 % of control; under setting [13], 100 % of control; under setting [7], 89 % of control.

Consider `Oc1cc2c(cc1O)[C@H]1c3ccc(O)c(O)c3OC[C@@]1(O)C2`, for which the T/C reads like this: under setting [14], 100 % of control; under setting [15], 102 % of control; (dose: 100.0 mg/kg/injection, schedule: Q01DX009 (ip), vehicle: saline) 103 % of control; (dose: 200.0 mg/kg/injection, schedule: Q01DX009 (ip), vehicle: saline) 108 % of control; (dose: 400.0 mg/kg/injection, schedule: Q01DX009 (ip), vehicle: saline) 103 % of control.

With `CCC(C)C(NC(=O)OC(C)(C)c1ccc(-c2ccccc2)cc1)C(=O)O` (configuration not stated), the T/C is 94 % of control under setting [7], 94 % of control under setting [4] and 91 % of control under setting [5].

In the case of `CC(C)/C=C(\C#N)C(=O)O`, the T/C was 100 % of control under setting [10], 100 % of control under setting [1] and 100 % of control under setting [2].

Regarding `COC1=C2CC(C)CC(OC)C(O)C(C)/C=C(\C)C(OC(N)=O)C(OC)/C=C\C=C(/C)C(=O)NC(=C(/C=N/N3CCCCC3)C1=O)C2=O` (configuration not stated), the T/C was 101 % of control (dose: 12.5 mg/kg/injection, schedule: Q01DX005 (ip), vehicle: other); 98 % of control (dose: 25.0 mg/kg/injection, schedule: Q01DX005 (ip), vehicle: other); 97 % of control (dose: 50.0 mg/kg/injection, schedule: Q01DX005 (ip), vehicle: other); 88 % of control (dose: 100.0 mg/kg/injection, schedule: Q01DX005 (ip), vehicle: other); 97 % of control (dose: 200.0 mg/kg/injection, schedule: Q01DX005 (ip), vehicle: other).

Turning to `COc1ccc(OC)c(NC=O)c1`, the T/C by setting is: under setting [13], 91 % of control; (dose: 12.5 mg/kg/injection, schedule: Q01DX009 (ip), vehicle: saline with Tween-80) 106 % of control; under setting [6], 90 % of control and 97 % of control.

Take `NC(N)=NC1CCCC1`: the T/C is 97 % of control (dose: 12.5 mg/kg/injection, schedule: Q01DX009 (ip), vehicle: saline); 114 % of control under setting [14]; 98 % of control under setting [15].

In the case of `CN(Cc1cnc2nc(N)nc(N)c2n1)c1c(Cl)cc(C(=O)NC(CCC(=O)O)C(=O)O)cc1Cl` (configuration not stated), the T/C by setting is: under setting [11], 116 % of control; under setting [9], 111 % of control; under setting [10], 116 % of control; (dose: 17.5 mg/kg/injection, schedule: Q01DX011 (ip), vehicle: saline) 99 % of control; under setting [1], 109 % of control; (dose: 35.0 mg/kg/injection, schedule: Q01DX011 (ip), vehicle: saline) 107 % of control. Moreover, the T/C under setting [2] is 111 % of control.
